The target in one assay is T1, purified human FAS (Homo sapiens, UniProt P49327).
T1 construct: Human FAS was purified from cultured ZR-75-1 human breast cancer cells; endogenous in cells; host or cells: ZR-75-1 human breast cancer cells (ATCC); enzyme purified by PEG precipitation and Mono Q chromatography
The assay is described as follows: FAS enzymatic activity (malonyl-CoA dependent NADPH oxidation). It is filed as biochemical. As to conditions: for IC50: (SB). The method, then:
Purification of FAS from ZR-75-1 Human Breast Cancer Cells.
Human FAS was purified from cultured ZR-75-1 human breast cancer cells obtained from the American Type Culture Collection. The procedure, adapted from Linn et al., 1981, and Kuhajda et al., 1994, utilizes hypotonic lysis, successive polyethyleneglycol (PEG) precipitations, and anion exchange chromatography. ZR-75-1 cells are cultured at 37° C. with 5% CO2 in RPMI culture medium with 10% fetal bovine serum, penicillin and streptomycin.
Ten T150 flasks of confluent cells are lysed with 1.5 ml lysis buffer (20 mM Tris-HCl, pH 7.5, 1 mM EDTA, 0.1 mM phenylmethanesulfonyl fluoride (PMSF), 0.1% Igepal CA-630) and dounce homogenized on ice for 20 strokes. The lysate is centrifuged in JA-20 rotor (Beckman) at 20,000 rpm for 30 minutes at 4° C. and the supernatant is brought to 42 ml with lysis buffer. A solution of 50% PEG 8000 in lysis buffer is added slowly to the supernatant to a final concentration of 7.5%. After rocking for 60 minutes at 4° C., the solution is centrifuged in JA-20 rotor (Beckman) at 15,000 rpm for 30 minutes at 4° C. Solid PEG 8000 is then added to the supernatant to a final concentration of 15%. After the rocking and centrifugation is repeated as above, the pellet is resuspended overnight at 4° C. in 10 ml of Buffer A (20 mM K2HPO4, pH 7.4). After […] filtration, the protein solution is applied to a Mono Q 5/5 anion exchange column (Pharmacia). The column is washed for 15 minutes with buffer A at 1 ml/minute, and bound material is eluted with a linear 60-ml gradient over 60 minutes to 1 M KCl. FAS (MW˜270 kD) typically elutes at 0.25 M KCl in three 0.5 ml fractions identified using 4-15% SDS-PAGE with Coomassie G250 stain (Bio-Rad). FAS protein concentration is determined using the Coomassie Plus Protein Assay Reagent (Pierce) according to manufacturer's specifications using BSA as a standard. This procedure results in substantially pure preparations of FAS (>95%) as judged by Coomassie-stained gels.
Measurement of FAS Enzymatic Activity and Determination of the IC50 of the Compounds
FAS activity is measured by monitoring the malonyl-CoA dependent oxidation of NADPH spectrophotometrically at OD340 in 96-well plates (Dils et al and Arslanian et al, 1975). Each well contains 2 μg purified FAS, 100 mM K2HPO4, pH 6.5, 1 mM dithiothreitol (Sigma), and 187.5 μM β-NADPH (Sigma). Stock solutions of inhibitors are prepared in DMSO at 2, 1, and 0.5 mg/ml resulting in final concentrations of 20, 10, and 5 μg/ml when 1 μl of stock is added per well. For each experiment, cerulenin (Sigma) is run as a positive control along with DMSO controls, inhibitors, and blanks (no FAS enzyme) all in duplicate.
The assay is performed on a Molecular Devices SpectraMax Plus Spectrophotometer. The plate containing FAS, buffers, inhibitors, and controls are placed in the spectrophotometer heated to 37° C. Using the kinetic protocol, the wells are blanked on duplicate wells containing 100 μl of 100 mM K2HPO4, pH 6.5 and the plate is read at OD340 at 10 sec intervals for 5 minutes to measure any malonyl-CoA independent oxidation of NADPH. The plate is removed from the spectrophotometer and malonyl-CoA (67.4 μM, final concentration per well) and […] (61.8 μM, final concentration per well) are added to each well except to the blanks. The plate is read again as above with the kinetic protocol to measure the malonyl-CoA dependent NADPH oxidation. The difference between the Δ OD340 for the malonyl-CoA dependent and non-malonyl-CoA dependent NADPH oxidation is the specific FAS activity. Because of the purity of the FAS preparation, non-malonyl-CoA dependent NADPH oxidation is negligible.
The IC50 for the compounds against FAS is determined by plotting the Δ OD340 for each inhibitor concentration tested, performing linear regression and computing the best-fit line, r^2 values, and 95% confidence intervals. The concentration of compound yielding 50% inhibition of FAS is the IC50. […]

Assay [1] relates to MCF-7 human breast cancer cells. The assay is described as follows: XTT cytotoxicity assay (M). It is filed as cell-based. Conditions: MCF7. The method, then: The XTT assay is a non-radioactive alternative for the [^51Cr] release cytotoxicity assay. XTT is a tetrazolium salt that is reduced to a formazan dye only by metabolically active, viable cells. The reduction of XTT is measured spectrophotometrically as OD490-OD650.
To measure the cytotoxicity of specific compounds against cancer cells, 9×10^3 MCF-7 human breast cancer cells, obtained from the American Type Culture Collection are plated per well in 96 well plates in DMEM medium with 10% fetal bovine serum, insulin, penicillin, and streptomycin. Following overnight culture at 37° C. and 5% CO2, the compounds to be tested, dissolved in DMSO, are added to the wells in 1 μl volume at the following concentrations: 80, 40, 20, 10, 5, 2.5, 1.25, and 0.625 μg/ml in triplicate. Additional concentrations are tested if required. 1 μl of DMSO is added to triplicate wells are the vehicle control. C75 is run at 40, 20, […], and 5 μg/ml in triplicate as positive controls.
After 72 hours of incubation, cells are incubated for 4 hours with the XTT reagent as per manufacturer's instructions (Cell Proliferation Kit II (XTT) Roche). Plates are read at OD490 and OD650 on a Molecular Devices SpectraMax Plus Spectrophotometer. Three wells containing the XTT reagent without cells serve as the plate blank. XTT data are reported as OD490-OD650. Averages and standard error of the mean are computed using SOFTmax Pro software ([…]).
The IC50 for the compounds is defined as the concentration of drug leading to a 50% reduction in OD490-OD650 compared to controls. The OD490-OD650 are computed by the SOFTmax PRO software (Molecular Devices) for each compound concentration. IC50 is calculated by linear regression, plotting the FAS activity as percent of control versus drug concentrations. Linear regression, best-fit line, r^2, and 95% confidence intervals are determined using Prism Version 3.0 (Graph Pad Software).

The structures appear in SMILES notation. ≈ marks a conversion by molar mass, not a printed value.

T1 sequence (P49327 whole entry): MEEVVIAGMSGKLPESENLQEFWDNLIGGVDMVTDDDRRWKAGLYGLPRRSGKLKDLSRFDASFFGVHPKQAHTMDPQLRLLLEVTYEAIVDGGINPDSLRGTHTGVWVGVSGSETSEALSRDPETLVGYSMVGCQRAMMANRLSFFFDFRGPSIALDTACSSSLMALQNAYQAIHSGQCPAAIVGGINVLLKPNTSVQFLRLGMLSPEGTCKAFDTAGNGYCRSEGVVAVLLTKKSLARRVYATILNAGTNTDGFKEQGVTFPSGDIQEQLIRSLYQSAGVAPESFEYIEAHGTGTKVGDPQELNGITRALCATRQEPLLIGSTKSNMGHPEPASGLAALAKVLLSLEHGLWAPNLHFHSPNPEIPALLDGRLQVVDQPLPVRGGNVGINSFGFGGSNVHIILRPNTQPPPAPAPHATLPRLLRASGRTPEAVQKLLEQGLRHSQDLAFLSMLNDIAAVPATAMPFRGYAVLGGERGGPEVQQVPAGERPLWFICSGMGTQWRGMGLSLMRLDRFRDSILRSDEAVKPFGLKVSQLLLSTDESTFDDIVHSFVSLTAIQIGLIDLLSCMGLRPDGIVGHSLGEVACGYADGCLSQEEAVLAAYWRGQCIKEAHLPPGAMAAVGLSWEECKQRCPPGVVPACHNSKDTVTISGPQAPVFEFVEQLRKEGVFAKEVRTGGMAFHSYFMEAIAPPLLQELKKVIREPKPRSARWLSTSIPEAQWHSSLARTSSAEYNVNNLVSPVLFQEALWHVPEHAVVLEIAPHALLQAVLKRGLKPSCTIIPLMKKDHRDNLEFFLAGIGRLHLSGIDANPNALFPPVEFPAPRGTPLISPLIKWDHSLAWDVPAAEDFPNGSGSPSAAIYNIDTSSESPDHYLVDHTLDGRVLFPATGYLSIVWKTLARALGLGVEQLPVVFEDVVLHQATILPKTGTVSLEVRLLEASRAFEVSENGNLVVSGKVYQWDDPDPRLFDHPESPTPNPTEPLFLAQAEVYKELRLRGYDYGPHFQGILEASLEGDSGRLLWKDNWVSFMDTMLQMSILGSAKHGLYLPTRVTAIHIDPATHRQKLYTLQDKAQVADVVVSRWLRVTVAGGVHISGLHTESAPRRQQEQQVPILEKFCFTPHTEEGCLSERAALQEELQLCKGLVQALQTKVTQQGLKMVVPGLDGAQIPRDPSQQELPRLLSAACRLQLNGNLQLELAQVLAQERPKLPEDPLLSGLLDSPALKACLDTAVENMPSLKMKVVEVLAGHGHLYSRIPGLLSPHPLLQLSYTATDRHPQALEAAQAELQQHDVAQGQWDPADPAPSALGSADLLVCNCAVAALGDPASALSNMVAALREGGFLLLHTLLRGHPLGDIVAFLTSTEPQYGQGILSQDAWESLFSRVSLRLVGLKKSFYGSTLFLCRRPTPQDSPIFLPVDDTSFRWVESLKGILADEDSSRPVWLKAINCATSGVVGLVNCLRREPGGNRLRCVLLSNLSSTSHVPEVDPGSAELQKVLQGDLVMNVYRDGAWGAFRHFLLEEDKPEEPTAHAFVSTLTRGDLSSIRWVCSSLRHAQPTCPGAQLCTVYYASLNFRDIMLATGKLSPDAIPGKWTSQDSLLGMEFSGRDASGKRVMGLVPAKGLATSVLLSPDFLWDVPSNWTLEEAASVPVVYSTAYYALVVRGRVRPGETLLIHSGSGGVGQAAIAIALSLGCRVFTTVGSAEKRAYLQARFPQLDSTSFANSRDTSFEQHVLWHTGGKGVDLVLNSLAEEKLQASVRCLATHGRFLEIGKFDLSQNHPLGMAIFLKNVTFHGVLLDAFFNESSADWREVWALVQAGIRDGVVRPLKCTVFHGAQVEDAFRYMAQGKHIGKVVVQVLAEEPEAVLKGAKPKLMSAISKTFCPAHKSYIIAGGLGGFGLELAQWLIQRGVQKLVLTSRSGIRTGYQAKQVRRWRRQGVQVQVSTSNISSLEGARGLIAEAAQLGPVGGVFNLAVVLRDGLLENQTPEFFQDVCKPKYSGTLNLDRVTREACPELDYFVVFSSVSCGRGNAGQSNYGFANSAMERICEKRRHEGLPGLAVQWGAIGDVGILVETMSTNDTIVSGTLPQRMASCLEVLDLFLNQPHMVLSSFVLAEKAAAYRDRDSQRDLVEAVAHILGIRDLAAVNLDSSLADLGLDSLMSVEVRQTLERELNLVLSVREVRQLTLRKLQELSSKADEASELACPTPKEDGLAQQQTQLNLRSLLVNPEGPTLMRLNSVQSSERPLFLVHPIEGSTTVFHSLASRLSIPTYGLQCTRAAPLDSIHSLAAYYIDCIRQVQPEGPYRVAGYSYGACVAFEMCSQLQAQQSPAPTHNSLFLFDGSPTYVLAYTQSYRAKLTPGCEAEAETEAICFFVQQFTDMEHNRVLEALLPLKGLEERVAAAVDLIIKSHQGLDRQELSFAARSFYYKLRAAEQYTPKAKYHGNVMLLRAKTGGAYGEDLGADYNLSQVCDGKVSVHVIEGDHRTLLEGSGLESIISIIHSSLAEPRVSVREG

Regarding `C=CCC1(CC=C)C(=O)SC(C)(CCCCCCCCCC)C1=O` (stereo not shown) [Compound 15, 3,3-Diallyl-5-methyl-5-decyl-thiophene-2,4-dione], the IC50 was 804 µM on purified human FAS and 71.8 µg/mL (≈ 205 µM) in assay [1].
For the compound `CCCCCCCCCCC1(C)SC(=O)C(C)(C)C1=O` (stereo not shown) [Compound 12, 3,3,5-Trimethyl-5-decyl-thiophene-2,4-dione], the IC50 is 854 µM against purified human FAS and 23.2 µg/mL (≈ 77.7 µM) in assay [1].
With `C=CCC1(CC=C)C(=O)SC(C)(CCCCCCCC)C1=O` (racemic) [Compound 4, 3,3-Diallyl-5-methyl-5-octyl-thiophene-2,4-dione], the “FAS (IC50)” value at purified human FAS was “Neg”. Besides, the IC50 at purified human FAS is 884 µM; in assay [1], 40.5 ± 14.8 µg/mL (≈ 126 µM).

The values are drawn from patent US20090005435A1, “Novel Compounds, Pharmaceutical Compositions Containing Same, and Methods of Use for Same” (priority 2004, published 2009).
